Data taken from ChEMBL document CHEMBL1817565, “Synthesis and antimalarial evaluation of novel benzopyrano[4,3-b]benzopyran derivatives” (Bioorg Med Chem, 2011).

What was measured:
Plasmodium falciparum = assay: Antimalarial activity against chloroquine-sensitive Plasmodium falciparum 3D7 infected in erythrocytes assessed as [3H] incorporation after 48 hrs by scintillation counter; format: functional, organism-based
[1] = Selectivity ratio of cytotoxicity against human NFF cells to IC50 for Plasmodium falciparum 3D7; format: cell-based
[2] = Cytotoxicity against human NFF cells at 50 uM after 3 days by sulforhodamine B assay; format: cell-based; conditions: read-out: INH

SMILES	IC50 (Plasmodium falciparum) [µM]	selectivity ratio [1]	cytotoxicity at 72 h, 50 µM [2] [%]
COc1cc(OC)c2c(c1OC)O[C@H]1c3c(OC)cc(OC)c(OC)c3O[C@H](c3ccccc3)[C@H]1[C@@H]2/C=C/c1ccccc1 [DEPENDENSIN]	3.9	10	46.9
COc1cc(OC)c2c(c1OC)O[C@H]1c3c(OC)cc(OC)c(OC)c3O[C@H](c3ccc(C)cc3)[C@H]1[C@@H]2/C=C/c1ccc(C)cc1	1.9	10	47.2
COc1ccc(/C=C/[C@@H]2c3c(OC)cc(OC)c(OC)c3O[C@H]3c4c(OC)cc(OC)c(OC)c4O[C@H](c4ccc(OC)cc4)[C@@H]23)cc1	3.2	10	43.2
COc1cc(OC)c2c(c1OC)O[C@H]1c3c(OC)cc(OC)c(OC)c3O[C@H](c3ccc(Br)cc3)[C@H]1[C@@H]2/C=C/c1ccc(Br)cc1	2.9	10	46.3
COc1cc(OC)c2c(c1OC)O[C@H]1c3c(OC)cc(OC)c(OC)c3O[C@H](c3ccc(Cl)cc3)[C@H]1[C@@H]2/C=C/c1ccc(Cl)cc1	3.3	–	98.4
